Data on one compound can be found in ChEMBL document CHEMBL5705883, “Discovery of a selective inhibitor of oncogenic B-Raf kinase with potent antimelanoma activity” (Proc Natl Acad Sci U S A, 2008).

The structures appear in SMILES notation. The source made the active and inactive calls. The rule behind the calls is not given here.

One data set relates to COLO-829. The experiment in a line: cells. The note with it: Homo sapiens, COLO-829, 72 h.
The next data set relates to COLO 205. The experiment in a line: cells. The note with it: Homo sapiens, COLO 205, 72 h.
The test system of the next data set is WM 266-4. The experiment in a line: cells. The following applies: Homo sapiens, WM 266-4, 72 h.
The subject of a further data set is NCI-H1299. The experiment in a line: cells. The following applies: Homo sapiens, NCI-H1299, 72 h.
The nature of another data set: in vivo. The note with it: nude, mouse, plasma, po, 1000 mg/kg.
A short description of the next data set: animal or person. The following applies: Mus musculus, COLO 205, po, 336 h, read-out: INH.
A further data set has as its system SK-MEL3. Briefly: cells. The note with it: Homo sapiens, SK-MEL3, 72 h.
A short description of data set [1]: cells. The note with it: Homo sapiens, SW-620, 1 h.
The next data set is filed under the species Mus musculus. The note with it: SCID, dose 100.0 mg/kg, route po, time 15.0 day.
The nature of data set [2]: cells. The following applies: Homo sapiens, COLO-829, 1 h.
Another data set relates to SK-MEL-2. Briefly: cells. The following applies: Homo sapiens, SK-MEL-2, 72 h.
Data set [3] is described as follows: cells. The note with it: HT716, 72 h.
A further data set has as its system A-375. The experiment in a line: cells. The note with it: Homo sapiens, A-375, 72 h.
Another data set concerns Calu-6. The experiment in a line: cells. The following applies: Homo sapiens, Calu-6, 72 h.
In a further data set the test system is HCT-116. The experiment in a line: cells. The note with it: Homo sapiens, HCT-116, 72 h.
The next data set has as its system NCI-H460. Briefly: cells. The following applies: Homo sapiens, NCI-H460, 72 h.
Another data set relates to LoVo. The experiment in a line: cells. The note with it: Homo sapiens, 72 h.
The test system of another data set is SW-620. The experiment in a line: cells. The following applies: Homo sapiens, SW-620, 72 h.
Data set [4] is described as follows: cells. The note with it: Homo sapiens, COLO 205, 1 h.
Data set [5] is described as follows: cells. The note with it: Homo sapiens, A-375, 1 h.

For `CCCS(=O)(=O)Nc1ccc(F)c(C(=O)c2c[nH]c3ncc(Cl)cc23)c1F` [PLX-4720], the GI50 in the data set on COLO-829 stood at 1.7 µM; in the data set with COLO 205, 0.31 µM; with WM 266-4 it was 1.5 µM; in the data set with NCI-H1299, 41 µM; with SK-MEL3 it was 27 µM; in the data set with SK-MEL-2, 27 µM. For the same compound, the GI50 in “cells [3]” is 10 µM; in the data set on A-375, 0.5 µM; in the data set on Calu-6, 26 µM; in the data set on HCT-116 it was 27 µM; in the data set with NCI-H460, 24 µM; with LoVo it was 29 µM. In the data set on SW-620, this compound displayed a GI50 of 13 µM. For the same compound, in “in vivo”, the concentration at 336 h is no more than 600 µM. Moreover, the inhibition in vivo at 20 mg/kg in “animal or person” amounted to 43%. In addition, the half-maximal inhibitory concentration (IC50) in “cells [1]” was greater than 40 µM; in the data set “cells [2]” it was 0.044 µM; in “cells [4]” it was 0.014 µM; in “cells [5]”, 0.046 µM. In addition, the inhibition result in the data set filed under Mus musculus was “Active”.
